Test results reported in publication PMC7214178, “Ligand‐specific recycling profiles determine distinct potential for chronic analgesic tolerance of delta‐opioid receptor (DOPr) agonists” (Journal of Cellular and Molecular Medicine, 2020).

Assays:
[1] = system: rat model of streptozotocin (STZ)‐induced diabetic neuropathy; assay: Chronic (homologous) analgesic tolerance over six daily i.t. injections at ED80, with or without ECE2 inhibitor 6634449; format: in vivo; conditions: for Anti‐allodynic response over 6‐day treatment: six consecutive i.t. injections at ED80, 24‐hour intervals, daily AUC, seven rats/group
Method: Type I diabetes was induced by systemic injection of streptozotocin (STZ, 65 mg/kg, i.p.) according to a standardized methodology, which allows development of persistent diabetic neuropathy after the first week of treatment. ^20 At the end of the first week, blood was extracted from the tail vein and blood glucose levels were measured with a glucometer (Accu‐Chek Aviva; Roche Diagnostics) prior to evaluation of analgesia on the second week.
Mechanical allodynia is the consequence of maladaptive neuroplasticity following nerve damage. ^24 In a model of diabetic neuropathy as the one used in this study, hyperglycaemia contributes to generate reactive oxygen species which induce microglia activation and inflammatory mediators. ^25 , ^26 These mediators attenuate the activity of Gly/GABA interneurons in superficial layers ^24 , ^27 , ^28 , ^29 and disrupt the inhibitory control that prevents innocuous touch stimuli from producing pain which leads to allodynia. ^30 DOPrs are expressed in these light‐touch mechanoreceptors ^31 and up‐regulated during sensitization, ^32 , ^33 making DOPr agonists elective for relieving this type of pain. Allodynia was evaluated using Von Frey filaments as previously described. ^19 Briefly, rats were accustomed for 15 min on a metal mesh floor under an inverted plastic box (20 × 10 × 10 cm) in a quiet room dedicated to this behavioural test. After habituation, the plantar surface of the right and left hind legs was alternately touched (6‐8 seconds) with von Frey filaments of progressively wider diameter in order to find the threshold of pressure required to produce withdrawal. The mechanical threshold response was obtained by consigning the pressure in grams that would result in withdrawal of the paw in 50% of 10 trials. A normal rat responds to tactile pressures of 12‐15 g whereas neuropathic rats respond to pressures of 4‐6 g. ^24
To evaluate homologous tolerance, each agonist was injected i.t. once daily for six consecutive days, at ED80 derived from dose‐response curves (deltorphin‐IIED80: 0.30 nmol/30 μL; TIPPED80: 0.40 nmol/30 μL; SB235863ED80: 1.7 nmol/30 μL and SNC‐80ED80: 0.55 nmol/30 μL). Immediately after drug administration, mechanical allodynia was measured every 15 minutes until the analgesic response disappeared. […] Prior to starting any pharmacological treatment, the presence of allodynia was confirmed. Treatments and measures were carried out randomly by two different experimenters to ensure blinding to treatment for the person assessing allodynia. In a series of experiments, an inhibitor of endothelin‐converting enzyme 2 (ECE2), 6634449, was administered by i.t injection (3 nmol/30 μL) 20 minutes prior to administration of DOPr ligands from 2 to 7 days. The vehicle (4% DMSO diluted in CSF sterile) was given as control. The dose of 6634449 used in this study was based on results previously published. ^25
Figure 1 Experimental design. One week after STZ administration, repeated treatments with DOPr agonists were started. Before starting chronic treatment with ED80 of deltorphin II, TIPP, SB235863 or SNC‐80, animals were tested to establish the baseline allodynia. Immediately after, they were injected with deltorphin II at a dose corresponding to ED50, which was repeated at the end of treatment. Allodynia measures were taken every 15 min after each injection until analgesic effects disappeared. Chronic tolerance was evaluated by comparing analgesic response to successive i.t. injections of each agonist between days 2 and 6. Difference in analgesic response to deltorphin II ED50 in days 1 and 8 allowed to establish tolerance induced by the different agonists to this common probe

Flag‐DOPr = assay: Agonist‐induced internalization of Flag‐DOPrs in primary cortical neuron cultures; format: cell-based, Murine; conditions: 10 µmol/L, 60 min; rat primary cortical neurons transfected with Flag‐DOPr; three independent experiments
Method: Primary neuronal cultures were prepared from rat post‐natal prefrontal cortex (P0‐P2) as previously described. ^19 Briefly, three cultures were independently prepared from 8 to 12 pups each. Pups were cryo‐anaesthetized, and brains were removed and transferred into ice‐cold dissociation solution (NaS0_4 90 mmol/L; K2SO4 30 mmol/L; MgCl2 5.8 mmol/L; CaCl20.25 mmol/L; HEPES 10 mmol/L; glucose 20 mmol/L; pH 7.4). Following dissection, the frontal cortex was digested in papain solution (20 U/mL; 40 minutes at 37°C), and the product passed through Pasteur pipettes of progressively decreasing diameter for mechanical dissociation. The suspension obtained was centrifuged, and cells were then resuspended and diluted to a density of 2.5 million/mL, before plating onto glass coverslips pre‐coated with collagen/poly l‐lysine (each at 0.1 mg/mL). Culture proceeded in supplemented Neurocell medium (B27 4%; 100 U/mL penicillin‐streptomycin; GlutaMAX 2%; FBS 10%) for 24 hours. Coverslips were then transferred to a six‐well plate containing 2 mL of Neurocell medium/well and transfected with Flag‐DOPr (8 µg/well), using a calcium phosphate transfection protocol previously. ^19 Murine DORs tagged with the Flag epitope at the N terminus were a generous gift from Dr M. von Zastrow (University of California at San Francisco, San Francisco, CA).
Immunolabelling of surface receptors for quantification of trafficking was performed as previously described. ^19 Briefly, primary cultures expressing Flag‐DOPrs were incubated at 37°C with Neurocell medium containing Ca^2+‐dependent mouse anti‐Flag M1 antibody (1:100; Sigma). […]
Cytoplasmic and surface labelling densities were quantified with ImageJ using a previously described method, ^27 with small modifications. ^16 In particular, total cytoplasmic labelling density was obtained by measuring fluorescence intensity within the region confined between the external and nuclear perimeters, and dividing this value by the corresponding area. […]

Row | Compound | Analgesic t 1/2 (95% CI), rats pre‐treated with ECE2 inhibitor 6634449 ([1]; 6634449 3 nmol/30 μL (0.1 mmol/L) i.t. 20 min before each daily i.t. agonist injection at ED80, five rats/group) | Tolerance / analgesia with 6634449 pre‐treatment compared with vehicle controls ([1]; 6634449 0.1 mmol/L i.t. 20 min before each agonist injection at ED80, five rats/group) | Day by which analgesic effects were reduced in animals exposed to 6634449 ([1]; 6634449 i.t. 20 min before each daily agonist injection at ED80) | Anti‐allodynic response over 6‐day treatment [1] | Analgesic t 1/2 (95% CI), rats pre‐treated with vehicle ([1]; vehicle i.t. 20 min before each daily i.t. agonist injection at ED80, five rats/group) | Sequestration (intracellular labelling density) (Flag‐DOPr)
1 | deltorphin II | ill‐defined | significantly shorter | 4 days | maintained its analgesic response | no measurable decay t 1/2 | significantly higher
2 | CCC(C)COC(=O)c1[nH]c2c(c1C)CC1C3Cc4ccc(OC)c5c4C1(CCN3C)C2O5.Cl (stereo not drawn) [SB235863, [8R‐(4bS*,8aα,8aβ,12bβ)]7,10‐dimethyl‐1‐methoxy‐11‐(2‐ethylpropyl)oxycarbonyl 5,6,7,8,12,12b‐hexahydro‐(9H)‐4,8‐methanobenzofuro[3,2‐e]pyrrolo[2,3‐g]isoquinoline hydrochloride] |  |  |  | practically abolished |  | low‐internalizing
3 | C=CCN1C[C@H](C)N([C@H](c2ccc(C(=O)N(CC)CC)cc2)c2cccc(OC)c2)C[C@H]1C [SNC‐80, (+)‐4‐[(αR)‐α‐((2S,5R)‐4‐allyl‐2,5‐dimethyl‐1‐piperazinyl)‐3‐methoxybenzyl]‐N,N‐diethylbenzamide] |  |  |  | gradually decreased |  | significantly higher
